Assay results reported in ChEMBL document CHEMBL1201862, “PubChem BioAssay data set” (2004).
Calls of active or inactive are those of the source.

Assays:
Fatty acid synthase [1] = target: T1, Fatty acid synthase (Homo sapiens, UniProt P49327); assay: inhibition of human FAS-TE enzyme activity – biochemical, kinetic fluorescence intensity, dose response (AID 624326); assay type: functional;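 further: rate of fluorescence rise from hydrolysis of a fluorogenic O-methyl fluorescein ester substrate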
Fatty acid synthase [2] = target: T1, Fatty acid synthase; assay: inhibition of human FAS-TE enzyme activity – biochemical, endpoint fluorescence intensity, uHTS hits, dose response (AID 624327); assay type: functional;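 further: fluorescence from hydrolysis of an O-methyl fluorescein acyl ester substrate by the enzyme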
[3] = target: T2, Long-chain-fatty-acid--AMP ligase FadD28 (Mycobacterium tuberculosis, UniProt P9WQ59); assay: Fluorescence polarization aasay to screen for inhibitors that compete for the binding of FadD28 to a bisubstrate Measured in Biochemical System Using Plate Reader - 2147-01_Inhibitor_Dose_CherryPick_Activity.; assay type: functional, Mycobacterium tuberculosis H37Rv
T2 sequence (P9WQ59 whole entry): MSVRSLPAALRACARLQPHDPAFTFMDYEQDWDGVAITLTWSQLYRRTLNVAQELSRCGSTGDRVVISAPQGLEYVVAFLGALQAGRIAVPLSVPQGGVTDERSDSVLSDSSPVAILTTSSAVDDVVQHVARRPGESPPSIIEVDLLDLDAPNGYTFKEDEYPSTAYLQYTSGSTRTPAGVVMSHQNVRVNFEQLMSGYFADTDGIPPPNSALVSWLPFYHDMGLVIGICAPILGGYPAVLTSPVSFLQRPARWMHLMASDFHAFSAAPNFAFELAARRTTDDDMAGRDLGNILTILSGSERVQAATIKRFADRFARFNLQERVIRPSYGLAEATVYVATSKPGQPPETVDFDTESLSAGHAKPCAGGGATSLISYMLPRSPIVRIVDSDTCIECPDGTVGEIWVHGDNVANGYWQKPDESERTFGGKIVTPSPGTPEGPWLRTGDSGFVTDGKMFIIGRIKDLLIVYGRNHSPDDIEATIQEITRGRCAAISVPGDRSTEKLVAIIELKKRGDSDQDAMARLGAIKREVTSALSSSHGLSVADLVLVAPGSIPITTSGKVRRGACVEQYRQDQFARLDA

[4] = HEK-293T viability loss after treatment – luminescence, T-cell screen hits, cytotoxicity control for TCR NF-kB inhibitor project, dose response (AID 489026); assay type: functional, cell-based;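 further: cells exposed to compound about 14 hours before the viability readout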
Protein RecA = target: T3, Protein RecA (Mycobacterium tuberculosis, UniProt P9WHJ3); assay: Fluorescence Cell-Free Homogeneous Dose Retest to Identify Inhibitors of RecA-Intein Splicing Activity. [Related pubchem assays (depositor defined):AID2097, AID2223, AID489010, AID492950]; assay type: functional
T3 sequence (P9WHJ3 whole entry): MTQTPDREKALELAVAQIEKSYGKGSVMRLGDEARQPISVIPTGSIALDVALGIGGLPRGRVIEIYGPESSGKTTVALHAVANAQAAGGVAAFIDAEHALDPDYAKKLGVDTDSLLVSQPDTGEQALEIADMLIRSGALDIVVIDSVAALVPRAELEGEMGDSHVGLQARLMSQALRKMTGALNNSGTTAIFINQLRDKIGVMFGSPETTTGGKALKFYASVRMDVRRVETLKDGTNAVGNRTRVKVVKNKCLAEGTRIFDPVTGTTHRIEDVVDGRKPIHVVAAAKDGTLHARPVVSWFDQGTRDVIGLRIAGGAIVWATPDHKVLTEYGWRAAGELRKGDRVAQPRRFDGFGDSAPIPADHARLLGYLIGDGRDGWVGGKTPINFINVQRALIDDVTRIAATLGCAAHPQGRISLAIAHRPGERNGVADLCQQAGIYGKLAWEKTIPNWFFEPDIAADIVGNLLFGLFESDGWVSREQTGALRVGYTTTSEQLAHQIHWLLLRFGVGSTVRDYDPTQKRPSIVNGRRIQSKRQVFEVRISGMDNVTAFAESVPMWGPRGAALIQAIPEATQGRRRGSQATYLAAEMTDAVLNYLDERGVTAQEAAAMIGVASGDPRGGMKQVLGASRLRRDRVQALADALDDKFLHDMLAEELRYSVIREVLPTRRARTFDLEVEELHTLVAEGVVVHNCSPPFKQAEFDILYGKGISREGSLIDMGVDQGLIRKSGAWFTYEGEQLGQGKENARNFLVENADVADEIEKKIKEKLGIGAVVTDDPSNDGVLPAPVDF

Beta-galactosidase = Beta-galactosidase (Escherichia coli, UniProt Q8VNN2); assay: PubChem AID 485352; assay type: functional
Sequence of Beta-galactosidase (Q8VNN2 whole entry): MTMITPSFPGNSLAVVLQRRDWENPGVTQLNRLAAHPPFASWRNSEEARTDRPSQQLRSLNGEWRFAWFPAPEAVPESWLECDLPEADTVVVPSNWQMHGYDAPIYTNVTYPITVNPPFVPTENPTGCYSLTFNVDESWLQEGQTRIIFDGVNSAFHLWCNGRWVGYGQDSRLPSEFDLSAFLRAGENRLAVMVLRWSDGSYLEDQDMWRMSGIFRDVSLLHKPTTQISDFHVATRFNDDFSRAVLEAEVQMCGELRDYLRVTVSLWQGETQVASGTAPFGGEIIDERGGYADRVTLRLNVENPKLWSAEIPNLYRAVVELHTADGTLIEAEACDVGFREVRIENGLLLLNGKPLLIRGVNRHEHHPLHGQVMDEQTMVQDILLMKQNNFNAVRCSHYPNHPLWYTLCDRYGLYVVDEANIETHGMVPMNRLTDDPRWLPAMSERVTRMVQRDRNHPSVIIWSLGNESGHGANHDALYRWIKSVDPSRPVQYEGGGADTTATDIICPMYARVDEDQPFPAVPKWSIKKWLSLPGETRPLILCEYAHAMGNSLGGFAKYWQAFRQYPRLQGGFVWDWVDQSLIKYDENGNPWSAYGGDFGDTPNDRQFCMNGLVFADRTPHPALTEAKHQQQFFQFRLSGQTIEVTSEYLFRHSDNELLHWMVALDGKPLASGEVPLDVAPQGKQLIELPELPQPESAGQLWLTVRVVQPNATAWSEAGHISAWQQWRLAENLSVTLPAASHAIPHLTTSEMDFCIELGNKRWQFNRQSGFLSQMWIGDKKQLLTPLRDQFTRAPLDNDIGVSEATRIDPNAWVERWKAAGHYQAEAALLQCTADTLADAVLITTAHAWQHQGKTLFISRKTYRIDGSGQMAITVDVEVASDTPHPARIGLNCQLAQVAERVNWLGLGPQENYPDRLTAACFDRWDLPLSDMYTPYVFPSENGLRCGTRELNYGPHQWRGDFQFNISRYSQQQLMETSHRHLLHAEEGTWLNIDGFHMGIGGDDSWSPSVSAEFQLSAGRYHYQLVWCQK

[5] = target: T4, Replicative DNA helicase DnaB (Mycobacterium tuberculosis, UniProt P9WMR3); assay: DnaB intein splicing inhibitors, dose response, biochemical, cell-free fluorescence (AID 449749); assay type: functional
T4 sequence (P9WMR3 whole entry): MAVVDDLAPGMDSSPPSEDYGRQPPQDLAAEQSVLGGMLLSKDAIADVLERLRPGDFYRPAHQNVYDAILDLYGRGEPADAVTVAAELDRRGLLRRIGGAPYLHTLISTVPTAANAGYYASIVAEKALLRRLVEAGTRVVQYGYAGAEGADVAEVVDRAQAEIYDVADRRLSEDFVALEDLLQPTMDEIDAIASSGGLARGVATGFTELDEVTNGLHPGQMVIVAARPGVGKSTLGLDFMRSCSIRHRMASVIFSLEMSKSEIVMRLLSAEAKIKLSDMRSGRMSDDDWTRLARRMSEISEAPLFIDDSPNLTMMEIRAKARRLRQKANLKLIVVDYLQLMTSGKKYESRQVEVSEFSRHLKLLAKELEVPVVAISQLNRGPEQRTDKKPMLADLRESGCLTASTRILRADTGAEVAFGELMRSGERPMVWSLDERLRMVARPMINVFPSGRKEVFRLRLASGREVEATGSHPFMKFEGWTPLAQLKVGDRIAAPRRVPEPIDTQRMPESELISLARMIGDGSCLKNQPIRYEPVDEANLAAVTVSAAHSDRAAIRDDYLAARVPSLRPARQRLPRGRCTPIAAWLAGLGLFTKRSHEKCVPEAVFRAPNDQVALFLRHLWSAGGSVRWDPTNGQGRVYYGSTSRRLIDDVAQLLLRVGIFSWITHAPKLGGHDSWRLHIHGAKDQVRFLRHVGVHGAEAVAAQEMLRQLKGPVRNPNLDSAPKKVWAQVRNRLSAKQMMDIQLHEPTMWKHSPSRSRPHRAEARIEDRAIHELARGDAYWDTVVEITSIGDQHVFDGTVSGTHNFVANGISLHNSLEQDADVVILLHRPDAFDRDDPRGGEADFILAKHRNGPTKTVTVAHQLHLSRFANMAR

[6] = target: T5, Type-1 angiotensin II receptor (Homo sapiens, UniProt P30556); assay: antagonism of angiotensin II type 1 receptor – cell-based, uHTS hits, selectivity assay for APJ receptor antagonist project, dose response (AID 463214); assay type: functional;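 further: antagonist potency against angiotensin II stimulated AT1 response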
T5 sequence (P30556 whole entry): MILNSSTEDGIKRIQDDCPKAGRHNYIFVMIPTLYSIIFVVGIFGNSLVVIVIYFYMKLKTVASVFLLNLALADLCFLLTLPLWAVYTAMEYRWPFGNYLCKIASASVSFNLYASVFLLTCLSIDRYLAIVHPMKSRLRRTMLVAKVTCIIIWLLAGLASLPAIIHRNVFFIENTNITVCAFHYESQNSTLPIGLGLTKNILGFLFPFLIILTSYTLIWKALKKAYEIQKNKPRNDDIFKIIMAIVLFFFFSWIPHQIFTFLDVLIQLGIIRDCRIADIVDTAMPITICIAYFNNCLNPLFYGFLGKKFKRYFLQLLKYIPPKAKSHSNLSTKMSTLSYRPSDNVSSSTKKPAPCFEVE

[7] = viability of uninfected HEp-2 cells – cell-based, HTS, cytotoxicity control for RSV inhibitor project, dose response (AID 2410); assay type: functional; conditions: human respiratory syncytial virus
Streptococcus = assay: GAS UMAA2166 growth inhibition – luminescence, BacTiterGlo, counter-screen for streptokinase expression inhibitor project, dose response (AID 1915); assay type: functional, organism-based;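 further: potency for reduction of bacterial viability or growth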
[8] = target: Dual specificity tyrosine-phosphorylation-regulated kinase 1A (Rattus norvegicus, UniProt Q63470); assay type: biochemical, Homo sapiens
Streptokinase A = target: T6, Streptokinase A (Streptococcus pyogenes serotype M1, UniProt P10520); assay: viability-normalized secreted streptokinase activity reduction – plasminogen activation absorbance, OD405, dose response (AID 1914); assay type: functional, Streptococcus pyogenes M1 GAS;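 further: secreted streptokinase activity via plasminogen activation per viability signal from cell pellet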
T6 sequence (P10520 whole entry): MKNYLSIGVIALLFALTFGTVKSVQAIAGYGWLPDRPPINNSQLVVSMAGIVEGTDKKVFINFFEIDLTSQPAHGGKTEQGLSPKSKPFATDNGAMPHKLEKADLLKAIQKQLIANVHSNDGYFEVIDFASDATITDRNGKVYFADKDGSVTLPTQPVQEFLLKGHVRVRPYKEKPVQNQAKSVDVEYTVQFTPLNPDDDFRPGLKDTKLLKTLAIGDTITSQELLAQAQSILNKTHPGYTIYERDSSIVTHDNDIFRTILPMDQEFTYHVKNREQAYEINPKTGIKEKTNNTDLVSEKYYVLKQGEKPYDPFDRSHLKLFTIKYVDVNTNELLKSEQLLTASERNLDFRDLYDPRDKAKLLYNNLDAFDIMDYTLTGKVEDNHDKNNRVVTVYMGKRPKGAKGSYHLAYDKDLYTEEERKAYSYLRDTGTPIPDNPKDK

[9] = system: Streptococcus sp. 'group A'; assay: Streptococcus pyogenes SK(-)GAS viability under kanamycin – luminescence, BacTiterGlo, confirmation, counter-screen for streptokinase expression inhibitor project, dose response (AID 1900); assay type: functional, organism-based

T1 sequence (P49327 whole entry): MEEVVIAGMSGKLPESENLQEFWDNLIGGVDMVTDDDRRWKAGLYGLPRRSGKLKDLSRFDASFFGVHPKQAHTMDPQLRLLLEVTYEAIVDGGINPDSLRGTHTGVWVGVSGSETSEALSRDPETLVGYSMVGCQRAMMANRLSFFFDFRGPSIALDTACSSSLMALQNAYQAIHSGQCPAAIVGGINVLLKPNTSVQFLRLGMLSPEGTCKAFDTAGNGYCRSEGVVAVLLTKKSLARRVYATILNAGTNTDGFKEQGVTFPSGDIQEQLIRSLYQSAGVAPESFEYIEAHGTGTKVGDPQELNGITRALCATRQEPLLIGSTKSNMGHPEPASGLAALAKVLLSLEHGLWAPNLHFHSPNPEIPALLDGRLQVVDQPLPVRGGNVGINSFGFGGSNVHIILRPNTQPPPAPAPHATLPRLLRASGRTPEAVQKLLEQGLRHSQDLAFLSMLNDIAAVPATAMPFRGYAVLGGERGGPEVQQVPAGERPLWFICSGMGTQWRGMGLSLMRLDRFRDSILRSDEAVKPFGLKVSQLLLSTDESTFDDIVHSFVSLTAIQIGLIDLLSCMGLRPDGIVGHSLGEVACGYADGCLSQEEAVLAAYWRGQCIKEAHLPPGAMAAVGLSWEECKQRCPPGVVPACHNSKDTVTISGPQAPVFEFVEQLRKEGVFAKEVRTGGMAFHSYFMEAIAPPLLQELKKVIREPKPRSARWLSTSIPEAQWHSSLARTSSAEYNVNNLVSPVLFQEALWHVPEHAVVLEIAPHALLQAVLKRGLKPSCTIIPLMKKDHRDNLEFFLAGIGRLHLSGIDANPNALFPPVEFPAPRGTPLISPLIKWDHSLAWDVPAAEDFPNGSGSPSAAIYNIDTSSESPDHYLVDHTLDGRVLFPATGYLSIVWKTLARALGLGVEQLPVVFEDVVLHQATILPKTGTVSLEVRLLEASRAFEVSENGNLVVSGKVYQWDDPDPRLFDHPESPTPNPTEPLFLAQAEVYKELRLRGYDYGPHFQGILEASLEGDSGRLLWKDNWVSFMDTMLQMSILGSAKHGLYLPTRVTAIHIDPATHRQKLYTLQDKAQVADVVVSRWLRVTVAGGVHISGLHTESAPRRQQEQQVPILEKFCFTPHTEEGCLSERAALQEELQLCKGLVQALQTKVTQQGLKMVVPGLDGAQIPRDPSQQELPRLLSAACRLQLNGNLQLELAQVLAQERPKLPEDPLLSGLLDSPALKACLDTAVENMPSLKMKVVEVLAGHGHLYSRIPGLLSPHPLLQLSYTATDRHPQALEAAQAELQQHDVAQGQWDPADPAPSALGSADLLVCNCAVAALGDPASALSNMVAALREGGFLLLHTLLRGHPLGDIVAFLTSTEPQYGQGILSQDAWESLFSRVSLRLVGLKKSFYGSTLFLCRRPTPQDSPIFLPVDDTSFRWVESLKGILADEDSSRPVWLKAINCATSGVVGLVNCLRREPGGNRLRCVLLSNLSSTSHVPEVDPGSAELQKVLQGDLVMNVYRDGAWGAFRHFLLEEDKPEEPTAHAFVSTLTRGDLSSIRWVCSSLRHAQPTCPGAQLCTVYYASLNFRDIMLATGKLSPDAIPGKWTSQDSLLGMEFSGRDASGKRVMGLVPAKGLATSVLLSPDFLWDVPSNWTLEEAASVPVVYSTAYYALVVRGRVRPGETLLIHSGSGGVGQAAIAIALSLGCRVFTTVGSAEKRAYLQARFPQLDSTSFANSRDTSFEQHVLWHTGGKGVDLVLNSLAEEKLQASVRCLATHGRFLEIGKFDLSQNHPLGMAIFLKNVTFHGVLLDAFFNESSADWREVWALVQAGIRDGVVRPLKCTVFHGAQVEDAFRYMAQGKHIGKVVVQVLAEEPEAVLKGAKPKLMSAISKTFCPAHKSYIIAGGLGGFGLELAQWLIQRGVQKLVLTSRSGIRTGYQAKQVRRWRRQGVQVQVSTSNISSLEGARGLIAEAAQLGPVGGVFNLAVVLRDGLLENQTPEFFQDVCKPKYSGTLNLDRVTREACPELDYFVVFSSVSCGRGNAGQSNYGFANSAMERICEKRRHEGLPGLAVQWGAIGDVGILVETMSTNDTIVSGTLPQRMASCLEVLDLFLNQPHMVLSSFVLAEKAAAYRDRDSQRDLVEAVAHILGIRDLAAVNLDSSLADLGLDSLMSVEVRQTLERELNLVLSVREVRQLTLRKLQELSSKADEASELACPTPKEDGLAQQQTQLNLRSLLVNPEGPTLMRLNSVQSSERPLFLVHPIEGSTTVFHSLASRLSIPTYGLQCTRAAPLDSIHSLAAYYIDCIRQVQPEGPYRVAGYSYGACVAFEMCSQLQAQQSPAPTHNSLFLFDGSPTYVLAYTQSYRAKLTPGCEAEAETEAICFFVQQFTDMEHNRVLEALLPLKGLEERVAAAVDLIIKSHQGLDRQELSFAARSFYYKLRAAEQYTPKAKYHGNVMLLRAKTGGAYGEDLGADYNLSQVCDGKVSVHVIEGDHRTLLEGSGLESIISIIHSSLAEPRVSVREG

Q: With `O=C(N/C(=C\c1ccc(Br)cc1)C(=O)N1CCOCC1)c1ccc([N+](=O)[O-])cc1` as the molecule, how does the IC50 (Fatty acid synthase [1]) read?
A: 0.286 µM (active)

Q: What about the IC50 (Fatty acid synthase [2]) of the same molecule?
A: 0.262 µM (active)

Q: Which AC50 [3] does the source give for `O=C(CN1C(=O)S/C(=C\c2cc(Cl)c(O)c(Cl)c2)C1=O)Nc1ccccc1` here?
A: 3.49 µM (active)

Q: Which IC50 (Fatty acid synthase [1]) does the source give for `Cc1cccc2cc(/C=N/Nc3ccc(C(=O)O)cc3)c(Cl)nc12` here?
A: 18.3 µM (active)

Q: And the IC50 (Fatty acid synthase [2])?
A: 27.4 µM (inactive)

Q: For `COc1ccc(OC)c(COC(=O)c2cc([N+](=O)[O-])ccc2N2CCOCC2)c1`, which IC50 [4] is on record?
A: > 80 µM (inactive)

Q: And the IC50 (Fatty acid synthase [1])?
A: 15.4 µM (active)

Q: What about the IC50 (Fatty acid synthase [2]) of the same molecule?
A: 11.4 µM (active)

Q: Which results are given for `CCCSc1cc(NCCOC(=O)CCC)c([N+](=O)[O-])c2nonc12`?
A: EC50 (Protein RecA): 4.48 µM (active); EC50 (Beta-galactosidase): > 40 µM (inactive); AC50 [5]: 55 µM (active); IC50 [6]: 11 µM (active); IC50 (Fatty acid synthase [1]): 16.5 µM (active); IC50 (Fatty acid synthase [2]): 16.3 µM (active); CC50 [7]: 14.8 µM (active)

Q: For `COc1ccc2c(c1)C(=NNc1ccc(C(=O)O)cc1)c1cc(OC)ccc1-2`, which EC50 (Streptococcus) is on record?
A: 12.4 µM (active)

Q: And the IC50 (cells)?
A: 10.8 µM (active)

Q: And the AC50 [8]?
A: 0.02 µM (active)

Q: And the EC50 (Streptokinase A)?
A: > 150 µM (not active)

Q: What about the EC50 [9] of the same molecule?
A: 6.28 µM (active)

Q: What about the CC50 [7] of the same molecule?
A: 13.7 µM (active)

Q: What about the AC50 [3] of the same molecule?
A: 88 µM (active)

Q: For `CCC(C(=O)NC1CCCCC1)n1c(SCc2ccccc2F)nc2ccncc21` (stereo not drawn), which AC50 [3] is on record?
A: > 100 µM (inactive)
